Molecular target: Voltage-dependent L-type calcium channel subunit alpha-1C (Cavia porcellus)
Experiment: Displacement of [3H](+)-PN200-110 binding to calcium channels in guinea pig cardiac membranes.

Row | Structure (SMILES) | Ki [nM]
1 | CCOC(=O)C1=C(C)N=C(C)C(C(=O)OCC)C1c1c(C)noc1CCc1ccccc1-c1ccccc1 (stereo not drawn) [4-[5-(2-Biphenyl-2-yl-ethyl)-3-methyl-isoxazol-4-yl]-2,6-dimethyl-1,4-dihydro-pyridine-3,5-dicarboxylic acid diethyl ester] | 91
2 | CCOC(=O)C1=C(C)N=C(C)C(C(=O)OCC)C1c1c(C)noc1CCc1cccc2ccccc12 (stereo not drawn) [2,6-Dimethyl-4-[3-methyl-5-(2-naphthalen-1-yl-ethyl)-isoxazol-4-yl]-1,4-dihydro-pyridine-3,5-dicarboxylic acid diethyl ester] | 4.1
3 | CCOC(=O)C1=C(C)N=C(C)C(C(=O)OCC)C1c1c(C)noc1CCc1ccc2ccccc2c1 (stereo not drawn) [2,6-Dimethyl-4-[3-methyl-5-(2-naphthalen-2-yl-ethyl)-isoxazol-4-yl]-1,4-dihydro-pyridine-3,5-dicarboxylic acid diethyl ester] | 20
